These results are taken from patent US20220249492A1, “ANTICANCER COMBINATION THERAPY” (Boehringer Ingelheim International GmbH, priority 2019, published 2022).

Each structure is given as a SMILES string.

As a reminder, the IC50 is the point on the concentration scale where inhibition reaches its midpoint.

In series [1] the test system is ERK phosphorylation (pERK Thr202/Tyr204) in DLD-1 cells (KRAS G13D). Nature of the series: ERK phosphorylation assay (AlphaLISA SureFire Ultra p-ERK1/2) in DLD-1 cells. Particulars: Homo sapiens, 1 h compound incubation, EGF 50 ng/mL for 10 minutes. Format: cell-based. The method, then:
ERK Phosphorylation Assay
Low IC50 values are indicative of high potency of the SOS1 inhibitors in this assay setting.
ERK phosphorylation assays are performed using the following human cell lines:
DLD-1 (ATCC CCL-221): human colon cancer with a KRAS G13D mutation;
DLD-1 cells (ATCC CCL-221) are seeded at 50,000 cells per well in/60 μL of RPMI with 10% FBS, non-essential amino acids, pyruvate and glutamax in Greiner TC 384 plates. The cells are incubated for 1 h at room temperature and then incubated overnight in an incubator at 37° C. and 5% CO2 in a humidified atmosphere. 60 nL compound solution (10 mM DMSO stock solution) is then added using a Labcyte Echo 550 device. After a 1 h incubation in the aforementioned incubator, 3 μL Epidermal Growth Factor (EGF, final concentration 50 ng/mL) is added. […] After 20 minutes of incubation at room temperature with shaking, 6 μL of each lysate sample is transferred to a 384-well Proxiplate and analyzed for pERK (Thr202/Tyr204) with the AlphaLISA SureFire Ultra pERK1/2 (Thr202/Tyr204) Assay Kit. 3 μL Acceptor Mix and 3 μL Donor Mix are added under subdued light and incubated for 2 h at room temperature in the dark, before the signal is measured on a Perkin Elmer Envision plate reader using 384 AlphaScreen settings for Proxiplates. […]
Background: Alpha assays give light when donor and acceptor beads are brought close together.

The target of series [2] is T1, protein-protein interaction between SOS1 and KRAS G12D (Homo sapiens, UniProt Q07889).
T1 construct: GST-TEV-SOS1 (564-1049) is purchased from Viva Biotech Ltd; purchased Viva Biotech Ltd. (GST-TEV-SOS1); Xtal BioStructures, Inc. (K-Ras G12D) Lot #X129-110 (K-Ras)
T1 sequence (Q07889 564-1049): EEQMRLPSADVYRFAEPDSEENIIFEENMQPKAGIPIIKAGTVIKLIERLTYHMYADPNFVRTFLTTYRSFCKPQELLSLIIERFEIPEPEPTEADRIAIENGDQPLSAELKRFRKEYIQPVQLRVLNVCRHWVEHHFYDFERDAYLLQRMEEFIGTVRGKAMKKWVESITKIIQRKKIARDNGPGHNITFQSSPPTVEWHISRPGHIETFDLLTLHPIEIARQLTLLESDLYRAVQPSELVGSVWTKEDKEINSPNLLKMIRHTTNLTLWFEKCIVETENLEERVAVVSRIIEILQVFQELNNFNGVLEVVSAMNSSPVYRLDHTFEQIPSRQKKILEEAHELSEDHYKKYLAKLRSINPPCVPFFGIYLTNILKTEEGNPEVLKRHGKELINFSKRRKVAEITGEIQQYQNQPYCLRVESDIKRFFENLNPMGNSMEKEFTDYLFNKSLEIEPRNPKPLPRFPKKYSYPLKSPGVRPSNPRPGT
The series can be described thus: KRAS::SOS1 AlphaScreen binding assay. The method, then: KRAS::SOS1 AlphaScreen Binding Assay
Low IC50 values are indicative of high potency of the SOS1 inhibitors in this assay setting:
10 nM (final assay concentration) KRAS G12D, 10 μM (final assay concentration) GDP and 5 nM (final assay concentration) GST-SOS1 are mixed in assay buffer prior to use and kept at room temperature.
AlphaLISA Glutathione Acceptor Beads and AlphaScreen Streptavidin Donor Beads are mixed in assay buffer at a concentration of 10 μg/mL (final assay concentration) each prior to use and kept at room temperature.
Compounds are diluted to a final start concentration of 100 μM and are tested in duplicate. Assay-ready plates (ARPs) are generated using an Access Labcyte Workstation with a Labcyte Echo 550 or 555 accoustic dispenser. For compound a start concentration of 100 μM, 150 nL of compound solution is transferred per well in 11 concentrations in duplicate with serial 1:5 dilutions.
The assay is run using a fully automated robotic system in a darkened room below 100 Lux. 10 μL of KRAS::SOS1 GDP mix is added into columns 1-24 to the 150 nL of compound solution (final dilution in the assay 1:100, final DMSO concentration 1%).
After a 30 minute incubation time 5 μL of bead mix is added into columns 1-23. Plates are kept at room temperature in a darkened incubator. After a further 60 minute incubation, the signal is measured using a PerkinElmer Envision HTS Multilabel Reader using the AlphaScreen specifications from PerkinElmer. Each plate contains the following controls: • diluted DMSO+KRAS::SOS1 GDP mix+bead mix • diluted DMSO+KRAS::SOS1 GDP mix
IC50 values are calculated and analyzed using a 4 parametric logistic model.

Series [3] is described as follows: Metabolic (microsomal) stability assay, mouse (MLM). Particulars: mouse liver microsomes, 0.5 mg/mL protein, 1 μM test compound, 37° C.; predicted clearance as percent of liver blood flow. Format: in vitro ADME. The method, then:
(§1) Metabolic (Microsomal) Stability Assay:
(§2) The metabolic degradation of the test compound is assayed at 37° C. with pooled liver microsomes (mouse (MLM), rat (RLM) or human (HLM)). The final incubation volume of 74 μL per time point contains TRIS buffer (pH 7.5; 0.1 M), magnesium chloride (6.5 mM), microsomal protein (0.5 mg/mL for mouse/rat, 1 mg/mL for human specimens) and the test compound at a final concentration of 1 μM. Following a short preincubation period at 37° C., the reactions are initiated by addition of 8 μL beta-nicotinamide adenine dinucleotide phosphate, reduced form (NADPH, 10 mM) and terminated by transferring an aliquot into solvent after different time points. Additionally, the NADPH-independent degradation is monitored in incubations without NADPH, terminated at the last time point by addition of acetonitrile. The quenched incubations are pelleted by centrifugation (1811 g, 5 min). An aliquot of the supernatant is assayed by LC-MS/MS for the amount of parent compound.
(§3) In vitro intrinsic clearance (CLint,in vitro) is calculated from the time course of the disappearance of the test drug during the microsomal incubation. […] For better across species comparison the predicted clearance is expressed as percent of the liver blood flow [% QH] in the individual species. […]

Series [4] in a line: Metabolic (microsomal) stability assay, rat (RLM). Format: in vitro ADME. Particulars: rat liver microsomes, 0.5 mg/mL protein, 1 μM test compound, 37° C.; predicted clearance as percent of liver blood flow. The method, then: as §1, §2, §3
The nature of series [5]: Metabolic (microsomal) stability assay, human (HLM). Format: in vitro ADME. The settings on record: human liver microsomes, 1 mg/mL protein, 1 μM test compound, 37° C.; predicted clearance as percent of liver blood flow. The method, then: as §1, §2, §3
The next series deals with T2, CYP3A4 (Homo sapiens, UniProt P08684).
T2 construct: from tissue; host or cells: human liver microsomes
The series can be described thus: Time dependent inhibition of CYP3A4 assay (TDI 3A4). It counts as in vitro ADME. Particulars: human liver microsomes, 25 uM test compound; hydroxy-midazolam formation after 30 min preincubation relative to 0 min preincubation. The method, then: Time dependent inhibition of CYP3A4 Assay (TDI 3A4):
The time dependent inhibition towards CYP3A4 is assayed in human liver microsomes (0.02 mg/mL) with midazolam (15 μM) as a substrate. The test compounds are preincubated in presence of NADPH with human liver microsomes (0.2 mg/mL) at a concentration of 25 uM for 0 min and 30 min. After preincubation, the incubate is diluted 1:10 and the substrate midazolam is added for the main incubation (15 min). The main incubation is quenched with acetonitrile and the formation of hydroxy-midazolam is quantified via LC/MS-MS. The formation of hydroxy-midazolam from the 30 min preincubation relative to the formation from the 0 min preincubation is used as a readout. Values of less than 100% mean that the substrate midazolam is metabolized to a lower extend upon 30 min preincubation compared to 0 min preincubation. In general low effects upon 30 min preincubation are desired (corresponding to values close to 100%)
On the technique in general: Liver microsomes are vesicles of endoplasmic reticulum, rich in cytochrome P450 enzymes.

[6] abbreviates: KRAS::SOS1 AlphaScreen, KRAS G12D, IC50, tables 20 and 24.
Where [7] appears, read: KRAS G12D::SOS1 AlphaScreen, measured without EDTA unless marked with an asterisk.

T2 sequence (P08684 whole entry): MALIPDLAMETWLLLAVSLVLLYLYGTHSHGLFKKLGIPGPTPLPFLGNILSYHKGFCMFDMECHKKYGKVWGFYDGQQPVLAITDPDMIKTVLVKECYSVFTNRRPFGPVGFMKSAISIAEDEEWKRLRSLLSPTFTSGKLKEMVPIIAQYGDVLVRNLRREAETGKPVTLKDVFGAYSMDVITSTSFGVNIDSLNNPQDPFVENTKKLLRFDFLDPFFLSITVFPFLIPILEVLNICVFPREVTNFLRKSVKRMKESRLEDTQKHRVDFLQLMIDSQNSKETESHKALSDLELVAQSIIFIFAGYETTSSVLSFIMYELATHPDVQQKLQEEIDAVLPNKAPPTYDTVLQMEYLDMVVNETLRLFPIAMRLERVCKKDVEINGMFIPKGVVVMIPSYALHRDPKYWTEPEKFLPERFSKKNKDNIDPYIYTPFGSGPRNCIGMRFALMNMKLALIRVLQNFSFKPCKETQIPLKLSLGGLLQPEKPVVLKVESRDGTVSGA

Consider `Cc1nc(N[C@H](C)c2cccc(C(F)(F)F)c2C)c2cn([C@H]3C[C@H](F)C3)c(=O)cc2n1` [I-45], for which the IC50 worked out at 47 nM in series [1] and 11 nM in series [2] (setting [6]).
With `C[C@@H](Nc1ncnc2cc(=O)n(C34CC(F)(C3)C4)cc12)c1cccc(C(C)(F)F)c1F` [I-78], the “MLM [% QH]” value in series [3] is given as <24 % QH. Also, the “RLM [% QH]” value in series [4] is reported as <23 % QH. Moreover, the IC50 in series [2] (setting [6]) is 9 nM. In addition, the “HLM [% QH]” value in series [5] was <24 % QH.
For `Cc1nc(N[C@H](C)c2cccc(C(F)(F)F)c2C)c2cn(C34CCN(CC3)CC4)c(=O)cc2n1` [I-128], the “MLM [% QH]” value in series [3] was <24 % QH. Further, the “TDI 3A4 [%]” value at CYP3A4 was 98%. Moreover, the “RLM [% QH]” value in series [4] was <23 % QH. The compound also yielded an IC50 in series [2] (setting [7]) of 2 nM. The “HLM [% QH]” value in series [5] is given as 29 % QH.
In turn, `Cc1nc(N[C@H](C)c2cccc(C(C)(F)F)c2)c2cn(C3(C(F)(F)F)CCOC3)c(=O)cc2n1` (stereo partly drawn) [I-129] came in with an IC50 in series [2] (setting [7]) of 18 nM.
For `Cc1c(=O)n(C2(C)CC2)cc2c(N[C@H](C)c3cccc(C(F)(F)F)c3)ncnc12` [I-173], the “TDI 3A4 [%]” value on CYP3A4 worked out at 84%. This compound also returned an IC50 in series [2] (setting [6]) of 18 nM.
In turn, `C[C@@H](Nc1ncnc2c(C3CC3)c(=O)n(C3(C)CC3)cc12)c1cccc(C(F)F)c1F` [I-179] returned an IC50 in series [2] (setting [7]) of 11 nM.
